Experimental findings from patent US9872495B2, “Peptoid oligomers, pharmaceutical compositions and methods of using the same” (priority 2009, dated 2018) are described below.

The subject of series [1] is Staphylococcus aureus ATCC 25923. Format: cell-based. Particulars: ATCC 25923. How it is done:
(§1) Antimicrobial activity was tested against the gram-negative strain Escherichia coli ATCC 25922, and […] strains Staphylococcus aureus ATCC 25923, and Bacillus subtilis ATCC 6633, according to the guidelines given in the document […]-A7 of the CLSI (Clinical and Laboratory Standards Institute; Clinical and Laboratory Standards Institute. Methods for Dilution Antimicrobial Susceptibility Tests for Bacteria That Grow Aerobically-Seventh Edition: Approved Standard CLSI document […]-A7. CLSI, Wayne, USA, 2006). This reference is incorporated herein in its entirety. Hemolytic activity was tested against fresh human erythrocytes.

Series [2] concerns Bacillus subtilis ATCC 6633. Type of series: cell-based. The following applies: ATCC 6633. How it is done: as §1
Series [3] concerns Escherichia coli ATCC 25922. Type of series: cell-based. The following applies: ATCC 25922. The procedure:
as §1

For series [4], the system named is fresh human erythrocytes. Kind of series: Hemolytic activity. Particulars: red cells of human. Format: cell-based. The procedure:
Typically, toxicity is evaluated by hemolytic concentration50 (HC50), which measures the concentration of antimicrobial agents at which 50% of the erythrocytes in the culture are lysed. Significant hemolysis, as evaluated by HC50, was detectable only for peptide gramicidin S (40 μg/mL). […] In order to test hemolytic activity of peptoid oligomers further, more stringent parameters were used. Instead of HC50, hemolytic concentration10 (HC10) was used to evaluate hemolytic activity of peptoids used in this study. HC10 represents the concentration of antimicrobial agents where 10% of erythrocytes are lysed. HC10 values were detectable for only four peptoid oligomers. […] Antimicrobial activity was tested against the gram-negative strain Escherichia coli ATCC 25922, and […] strains Staphylococcus aureus ATCC 25923, and Bacillus subtilis ATCC 6633, according to the guidelines given in the document […]-A7 of the CLSI (Clinical and Laboratory Standards Institute; Clinical and Laboratory Standards Institute. Methods for Dilution Antimicrobial Susceptibility Tests for Bacteria That Grow Aerobically-Seventh Edition: Approved Standard CLSI document […]-A7. CLSI, Wayne, USA, 2006). This reference is incorporated herein in its entirety. Hemolytic activity was tested against fresh human erythrocytes.

Series [5] concerns MSSA (methicillin-sensitive) and MRSA (methicillin-resistant) S. aureus strains. Format: cell-based, Staphylococcus aureus. The procedure:
Experimental Design: • Twelve strains of MSSA (methicillin-sensitive) and MRSA (methicillin-resistant) S. aureus were cross-tested against two antibacterial peptoid oligomers.
[drawing 50] • Testing was accomplished with 96-well plates wherein each well contained LB media, the S. aureus strain, and a solution of the compound in ethanol at a specific concentration. • A twofold serial dilution of each compound was accomplished with pure ethanol starting from 0.5 mg/mL to 0.0039 mg/mL. • To determine the appropriate concentration of the bacterial strain for each well, the previously grown (overnight in LB media) cultures were diluted with LB media until the optical density at 595 nm (OD595˜OD600) was ˜0.005. • Each experiment was conducted in triplicate, e.g. testing of “Newman” S. aureus strain against a specific concentration of C(NapNdp)3 was replicated in three wells. • Control experiments were also conducted in absence of the compound, i.e. the plates contained only the bacterial strain, LB media, and ethanol. • The plates were incubated and gently shaken overnight (20 hours) at 37° C., and OD595 was read before (t=0) and after (t=20) incubation.
Specifically, along a dilution sequence, the well with the least OD595 after subtraction was determined to be the MIC.

Converted amounts (≈) assume the structure as drawn. Square brackets hold non-standard residues; d marks the D form. Peptide text beside a SMILES is read from it. Nphe = O=C(O)CNCc1ccccc1; Nlys = NCCCCNCC(=O)O

For `CC(=O)N(CCCN)CC(=O)N(CC(=O)N(CCCN)CC(=O)N(CC(=O)N(CCCN)CC(=O)N(CC(N)=O)CC(c1ccccc1)c1ccccc1)CC(c1ccccc1)c1ccccc1)CC(c1ccccc1)c1ccccc1` [Compound 4, Ac(NapNdp)3], the “MIC S. aureus” value in series [1] was 15.6 µg/mL (≈ 14 µM). Also, the “MIC B. sub” value in series [2] stood at 1 µg/mL (≈ 0.898 µM). In series [3], the “MIC E. coli” value is 15.6 µg/mL (≈ 14 µM). Besides, in series [4], the “HC10 (concentration where 10% hemolysis is observed)” value is above 62.5 µg/mL and the “HC50 (concentration where 50% hemolysis is observed)” value is above 250 µg/mL. Moreover, the “activity across strains of Staphylococcus aureus (in words)” value in series [5] (clinical, community-acquired, and hospital strains, methicillin-sensitive and methicillin-resistant) is “active”. Moreover, in series [5] (methicillin-sensitive) and (methicillin-resistant) strains), the “MIC against Staphylococcus aureus strain” value is 15.6 µg/mL (≈ 14 µM).

For `NCCCCN1CC(=O)N(Cc2ccccc2)CC(=O)N(CCCCN)CC(=O)N(Cc2ccccc2)CC(=O)N(CCCCN)CC(=O)N(Cc2ccccc2)CC1=O` [Compound 30, C(NabNpm)3] (cyclo([Nlys][Nphe][Nlys][Nphe][Nlys][Nphe])), the “MIC S. aureus” value in series [1] was 500 µg/mL (≈ 605 µM). Besides, in series [2], the “MIC B. sub” value amounted to 250 µg/mL (≈ 303 µM). For the same compound, the “MIC E. coli” value in series [3] was 250 µg/mL (≈ 303 µM). For the same compound, in series [4], the “HC10 (concentration where 10% hemolysis is observed)” value is above 250 µg/mL and the “HC50 (concentration where 50% hemolysis is observed)” value is above 250 µg/mL.

In the case of `N=C(N)NCCCCN1CC(=O)N(CC(c2ccccc2)c2ccccc2)CC(=O)N(CCCCNC(=N)N)CC(=O)N(CC(c2ccccc2)c2ccccc2)CC(=O)N(CCCCNC(=N)N)CC(=O)N(CC(c2ccccc2)c2ccccc2)CC(=O)N(CCCCNC(=N)N)CC(=O)N(CC(c2ccccc2)c2ccccc2)CC(=O)N(CCCCNC(=N)N)CC(=O)N(CC(c2ccccc2)c2ccccc2)CC1=O` [Compound 31, C(NgbNdp)5], in series [1], the “MIC S. aureus” value turned out to be 250 µg/mL (≈ 123 µM). In series [2], the “MIC B. sub” value came to 250 µg/mL (≈ 123 µM). For the same compound, the “MIC E. coli” value in series [3] is 250 µg/mL (≈ 123 µM). In addition, in series [4], the “HC10 (concentration where 10% hemolysis is observed)” value is above 62.5 µg/mL and the “HC50 (concentration where 50% hemolysis is observed)” value is above 250 µg/mL.

In the case of `N=C(N)NCCCCN1CC(=O)N(CC(c2ccccc2)c2ccccc2)CC(=O)N(CC(c2ccccc2)c2ccccc2)CC(=O)N(CC(c2ccccc2)c2ccccc2)CC(=O)N(CCCCNC(=N)N)CC(=O)N(CC(c2ccccc2)c2ccccc2)CC1=O` [Compound 32, C(NdpNgb)2Ndp2], the “MIC S. aureus” value in series [1] is above 500 µg/mL. The “MIC B. sub” value in series [2] was above 500 µg/mL. In series [3], the “MIC E. coli” value is above 500 µg/mL. In addition, in series [4], the “HC10 (concentration where 10% hemolysis is observed)” value is above 250 µg/mL and the “HC50 (concentration where 50% hemolysis is observed)” value was above 250 µg/mL.
